A word on the IC50: it is the concentration needed to halve the response being measured. As a reminder, the inhibition is the relative decrease from the control value, in per cent. Read a high inhibition as a strong effect.

The record followed here is ChEMBL document CHEMBL1148720, “Extensive SAR and computational studies of 3-{4-[(benzylmethylamino)methyl]phenyl}-6,7-dimethoxy-2H-2-chromenone (AP2238) derivatives” (J Med Chem, 2007).

Structures are written as SMILES. Where only a bound is given, the exact number is not on record here.

In one experiment the target is Cholinesterase (Homo sapiens, UniProt P06276). Put plainly: Inhibition of human recombinant BChE.
Experiment [1] deals with T1, Acetylcholinesterase (Homo sapiens, UniProt P22303). Description: Inhibition of human recombinant AChE.
Experiment [2] deals with T1, Acetylcholinesterase. Description: Inhibition of human AChE-mediated beta amyloid 1-40 aggregation at 100 uM.

Cholinesterase, sequence (P06276 whole entry): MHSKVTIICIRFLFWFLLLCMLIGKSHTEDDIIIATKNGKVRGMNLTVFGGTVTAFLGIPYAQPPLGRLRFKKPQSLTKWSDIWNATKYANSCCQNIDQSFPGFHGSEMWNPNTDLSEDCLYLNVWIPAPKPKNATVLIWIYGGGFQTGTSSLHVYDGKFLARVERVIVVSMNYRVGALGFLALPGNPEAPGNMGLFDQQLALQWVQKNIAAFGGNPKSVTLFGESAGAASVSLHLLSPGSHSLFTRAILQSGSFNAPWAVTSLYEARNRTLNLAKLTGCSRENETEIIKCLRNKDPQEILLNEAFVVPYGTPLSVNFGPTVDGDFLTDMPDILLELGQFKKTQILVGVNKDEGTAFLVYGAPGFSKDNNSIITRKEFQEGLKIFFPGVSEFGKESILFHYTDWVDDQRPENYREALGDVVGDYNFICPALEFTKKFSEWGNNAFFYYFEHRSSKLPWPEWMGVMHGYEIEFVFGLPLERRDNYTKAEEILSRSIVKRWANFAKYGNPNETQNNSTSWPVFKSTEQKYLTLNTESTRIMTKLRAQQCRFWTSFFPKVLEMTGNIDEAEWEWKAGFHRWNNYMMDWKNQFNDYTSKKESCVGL
T1 sequence (P22303 whole entry): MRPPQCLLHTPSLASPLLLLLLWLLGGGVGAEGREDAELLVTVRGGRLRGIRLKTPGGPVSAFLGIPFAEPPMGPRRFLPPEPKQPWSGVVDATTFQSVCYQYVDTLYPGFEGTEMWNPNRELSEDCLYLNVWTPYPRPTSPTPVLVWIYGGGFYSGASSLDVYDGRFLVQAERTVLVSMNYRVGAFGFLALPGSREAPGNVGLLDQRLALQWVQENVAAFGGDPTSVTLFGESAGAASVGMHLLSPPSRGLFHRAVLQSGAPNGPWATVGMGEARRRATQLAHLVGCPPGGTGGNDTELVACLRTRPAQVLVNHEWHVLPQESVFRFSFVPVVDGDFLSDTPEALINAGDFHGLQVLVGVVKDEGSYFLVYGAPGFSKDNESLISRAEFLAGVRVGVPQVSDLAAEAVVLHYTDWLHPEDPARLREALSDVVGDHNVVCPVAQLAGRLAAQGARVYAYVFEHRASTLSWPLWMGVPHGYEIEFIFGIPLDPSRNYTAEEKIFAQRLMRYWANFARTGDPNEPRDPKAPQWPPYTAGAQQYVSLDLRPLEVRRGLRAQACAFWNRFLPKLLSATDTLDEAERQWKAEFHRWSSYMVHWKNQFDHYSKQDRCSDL

Consider `COc1ccc2oc(=O)c(-c3cccc(CN(C)Cc4ccccc4)c3)cc2c1`, for which the results for the IC50 at Cholinesterase and at Acetylcholinesterase [1] were 136 µM and 0.303 µM, respectively. Regarding `COc1cc2occ(-c3ccc(CN(C)Cc4ccccc4)cc3)c(=O)c2cc1OC`, the half-inhibitory concentration (IC50) at Acetylcholinesterase [1] amounted to 1.23 µM. For `COc1cc2cc(-c3ccc(CN(C)Cc4ccccc4[N+](=O)[O-])cc3)c(=O)oc2cc1OC`, the half-inhibitory concentration (IC50) at Acetylcholinesterase [1] was 0.987 µM. Same read-out and setting: next, `COc1cc2occ(-c3cccc(CN(C)Cc4ccccc4)c3)c(=O)c2cc1OC`: 2.02 µM. Consider `CCN(Cc1ccccc1)Cc1cccc(-c2coc3cc(OC)c(OC)cc3c2=O)c1`, for which the half-maximal inhibitory concentration (IC50) at Acetylcholinesterase [1] was determined as 1.59 µM.

Consider `COc1ccc2c(=O)cc(-c3ccc(CN(C)Cc4ccccc4)cc3)oc2c1`, for which the half-maximal inhibitory concentration (IC50) at Acetylcholinesterase [1] was 80.5 µM. Turning to `COc1cc2cc(-c3ccc(CN(C)Cc4cccc(C)c4)cc3)c(=O)oc2cc1OC`, the IC50 at Acetylcholinesterase [1] worked out at 0.122 µM. Same read-out and setting: next, `COc1cc2cc(-c3ccc(CN(C)Cc4ccccc4C)cc3)c(=O)oc2cc1OC`: 0.366 µM. Turning to `COc1ccc2cc(-c3ccc(CN(C)Cc4ccccc4)cc3)c(=O)oc2c1`, at Acetylcholinesterase [2], the inhibition was below 5%. In addition, the values for the IC50 at Cholinesterase and on Acetylcholinesterase [1] were 570 µM and 0.892 µM, respectively. Take `COc1cc2cc(-c3ccc(C[N+](C)(C)Cc4ccccc4)cc3)c(=O)oc2cc1OC`: the IC50 at Cholinesterase amounted to 43.8 µM; on Acetylcholinesterase [1], 0.0105 µM. Take `COc1ccccc1CN(C)Cc1ccc(-c2cc3cc(OC)c(OC)cc3oc2=O)cc1`: the inhibition at Acetylcholinesterase [2] came out at 15%. Further, the half-inhibitory concentration (IC50) on Cholinesterase came to 52.9 µM; on Acetylcholinesterase [1], 0.0621 µM.

As to `COc1cc2cc(-c3ccc(CN(C)Cc4ccccc4)cc3)c(=O)oc2cc1OC`, the inhibition against Acetylcholinesterase [2] was found to be 35%.

Take `COc1cc2oc(-c3cccc(CN(C)Cc4ccccc4)c3)cc(=O)c2cc1OC`: the IC50 at Acetylcholinesterase [1] stood at 2.27 µM.

For `COc1ccc2oc(=O)c(-c3ccc(CN(C)Cc4ccccc4)cc3)cc2c1`, the inhibition against Acetylcholinesterase [2] was below 5%. The 50% inhibitory concentration (IC50) is 1300 µM at Cholinesterase and 0.163 µM on Acetylcholinesterase [1]. For `COc1ccc2cc(-c3cccc(CN(C)Cc4ccccc4)c3)c(=O)oc2c1`, the half-maximal inhibitory concentration (IC50) on Acetylcholinesterase [1] was 2.29 µM. The same measure, in the same setting: with `COc1cc2cc(-c3ccc(CN(C)Cc4cccc([N+](=O)[O-])c4)cc3)c(=O)oc2cc1OC` the figure was 0.368 µM. On the same count and under the same terms, with `COc1ccc(CN(C)Cc2ccc(-c3cc4cc(OC)c(OC)cc4oc3=O)cc2)cc1` the figure was 2.26 µM.

`COc1ccc2oc(-c3ccc(CN(C)Cc4ccccc4)cc3)cc(=O)c2c1`: the half-inhibitory concentration (IC50) is 88.9 µM on Cholinesterase and 18.1 µM at Acetylcholinesterase [1]. In the case of `CCN(Cc1ccccc1)Cc1ccc(-c2cc3cc(OC)c(OC)cc3oc2=O)cc1`, the inhibition against Acetylcholinesterase [2] is 38%. Also, the IC50 at Acetylcholinesterase [1] came out at 0.0183 µM. As for `COc1cc2cc(-c3ccc(CN(C)Cc4ccc(C)cc4)cc3)c(=O)oc2cc1OC`, the IC50 at Acetylcholinesterase [1] was 0.31 µM.

Compound `CN(Cc1ccccc1)Cc1ccc(-c2cc3cc([N+](=O)[O-])ccc3oc2=O)cc1` registered an inhibition on Acetylcholinesterase [2] below 5%. Moreover, the IC50 on Acetylcholinesterase [1] stood at 0.148 µM. In the same order, the values of `CN(Cc1ccccc1)Cc1ccc(-c2cc3cc(N)ccc3oc2=O)cc1` are below 5% and 0.281 µM.

`COc1cc2oc3cc(CN(C)Cc4ccccc4)ccc3c(=O)c2cc1OC`: the IC50 at Acetylcholinesterase [1] worked out at 30.3 µM.

Take `COc1cccc(CN(C)Cc2ccc(-c3cc4cc(OC)c(OC)cc4oc3=O)cc2)c1`: the IC50 on Acetylcholinesterase [1] is 0.714 µM.

As to `COc1cc2cc(-c3ccc(CN(CCO)Cc4ccccc4)cc3)c(=O)oc2cc1OC`, the inhibition against Acetylcholinesterase [2] turned out to be 6%. The IC50 was 35.1 µM on Cholinesterase and 0.0493 µM at Acetylcholinesterase [1]. In the same order, the values of `COc1cc2cc(-c3cccc(CN(C)Cc4ccccc4)c3)c(=O)oc2cc1OC` are 25%, 279 µM and 0.202 µM.
